In US20080090788A1, “Chemical Compounds” (priority 2005, published 2008):

Experiments:
[1] = tested on: IkB-α; assay: IkB-α phosphorylation and degradation by immunoblotting in LPS-stimulated U937 cells; type: cell-based, human; conditions: 30 minutes after LPS; for effect on IkB-α phosphorylation and degradation: 1 hour pretreatment
Experimental: Western blotting was performed as previously described (Brimmell M, Burns J S, Munson P, et al. High level expression of differentially localized BAG-1 isoforms in some oestrogen receptor-positive human breast cancers. Br J Cancer 1999; 81: 1042-51). IkB-α and phospho-Ser32 specific IkB-α antibodies were from Cell Signaling Technology (Hitchin, UK). The PARP antibody (C2-10 clone) was from R&D Systems (Abingdon, UK).
To determine the kinetics of modulation of IkB-α by LPS, U937 cells were treated with LPS for up to 120 minutes and total IkB-α and phosphorylated IkB-αanalysed by immunoblotting. There was a rapid accumulation of phosphorylated IkB-α, accompanied by IkB-α degradation (FIG. 3a). To confirm that the enhanced NF-kB inhibitory activity of compounds 3a, 3e and 3f was due to increased inhibition of IKK, we pretreated cells with these compounds and then stimulated them with LPS. IkB-α was analysed at 30 minutes after the addition of LPS because it was possible to monitor both phosphorylation and degradation at this time. […] Therefore, the improved NF-kB inhibitory activity of compounds 3a, 3e and 3f is associated with effective inhibition of IkB-α phosphorylation.
(A) U937-kBluc cells were treated with LPS for the indicated times and expression of total IkB-α and phosphorylated IkB-α determined by immunoblotting. (B) U937-kBluc cells were pretreated with the indicated concentrations of compounds or left untreated. After 1 hour, cells were stimulated with LPS. Control cells were cultured in the absence of LPS. Cells were harvested after 30 minutes and the expression of total IkB-α and phosphorylated IkB-α determined by immunoblotting. The signals were quantified by digital image analysis and the fold increase in IkB-α phosphorylation and percent expression of total IkB-α relative to control cells is shown.

[2] = tested on: AP-1 transcription factor binding sites; assay: AP-1 reporter construct luciferase activity in transfected activated HSC; type: cell-based; conditions: SFZ 1 mM, 3a 0.150 mM, 3e 0.127 mM, 3f 0.089 mM, 24 hours, rat HSC
Experimental: For HSC transfections, activated HSC were transfected by the non-liposomal Effectene protocol (Qiagen, UK) using 1 μg reporter plasmid DNA and 10 ng of control Renilla plasmid pRLTK (Promega, Southampton, UK) according to the manufacturer's instructions. After 24 hours, HSC were treated with test compounds for a further 24 hours. Luciferase assays were performed using a dual luciferase kit (Promega) according to the manufacturer's instructions. Firefly luciferase activities were normalised for differences in transfection efficiency by measurement of the activity of the co-transfected pRLTK. The pIκBα wt-Luc plasmid contains nucleotides −332 to +35 of the human IkB-α promoter cloned upstream of luciferase gene (Oakley F, et al, J Biol Chem 2003; 278: 24359-70). The pTIMP1-Luc plasmid contains the 162 bp human TIMP1 minimal promoter cloned upstream of luciferase gene (Bertrand-Philippe M, et al. J Biol Chem 2004; 279: 24530-9). The pAP1-Luc plasmid (Stratagene, UK) contains 7 copies of a consensus AP-1 binding site upstream of the minimal promoter and the luciferase gene.
To extend these findings, further analyses were performed using the […] promoter which contains multiple NF-kB binding sites and is a well studied NF-kB target. […] Consistent with the presence of activated NF-kB in HSC, (Wright M C et al, Gastroenterology 2001; 121: 685-98.) the IkB-α promoter was activated in HSC (FIG. 2a). SFZ (1 mM) inhibited promoter activity by >60%. […] Therefore, the improved inhibitory activity of analogues 3a, 3e and 3f is specific for NF-kB mediated transcription and is not restricted to U937 cells or artificial promoter constructs.
Rat HSC were transfected with (A) IkB-α-Luc, (B) TIMP1-Luc or (C) pAP-1-Luc reporter constructs. After 24 hours, cells were treated with sulfasalazine (1 mM), 3a (0.150 mM), 3e (0.127 mM), 3f (0.089 mM), or treated with DMSO as a control. Luciferase activity was determined after another 24 hours. Data presented are mean luciferase activity (±SEM) relative to control cells (value set to 100), derived from two separate experiments, each performed in duplicate and using an independent preparation of HSC.

[3] = tested on: ARH77 cells; assay: Cell death in ARH77 cells, propidium iodide flow cytometry; type: cell-based; conditions: Homo sapiens, ARH-77; 20 hours, PI uptake; mean of two determinations ±SD; read-out: IC50 for induction of ARH77 cell death
Experimental: A flow cytometry method was used to determine the ability of SFZ analogues to induce cell death in ARH77 cells. The proportion of cells that had lost plasma membrane integrity was used as a measure of cell viability. ARH77 (5×10^4) cells were incubated in a volume of 200 μl in 96 well plates with compound, an equivalent amount of DMSO or were left untreated as a control. After 20 hours, cells were washed in phosphate buffered saline (PBS), resuspended in PBS containing 1 μg/ml propidium iodide (PI) for 10 minutes. Cells were analysed using a FACSCalibur (BD Biosciences, Oxford, UK) using the FL2 channel. […] The proportion of cells with intense fluorescence as a proportion of total cells was calculated.
To assess cell death promoting activity, the ability of SFZ and the analogues with enhanced NF-kB inhibiting activity (3a, 3e and 3f) to kill Epstein-Barr virus transformed human B-cells, which are dependent on NF-kB for survival was compared (Cahir-McFarland E D, Carter K, Rosenwald A, et al. Role of NF-kB in cell survival and transcription of latent membrane protein 1-expressing or Epstein-Barr virus latency III-infected cells. J Virol 2004; 78: 4108-4119). […] Dose response experiments were performed to determine IC50 values (FIG. 4b).
ARH77 cells were incubated with various concentrations of SFZ, compounds 3a, 3e and 3f, DMSO as a solvent control, or were left untreated. […] (A) Representative histogram of fluorescence in untreated, DMSO or compound 3e (250 μM) treated cells. (B) Representative dose response experiment (□, untreated; ♦, DMSO; ▴, SFZ; ●, 3a; +, 3e; ×, 3f). Each data point is the mean of duplicate determinations (±SD). (C) Mean IC50 values (±SD) for induction of ARH77 cell death, derived from two independent experiments each performed in duplicate.

effect on activity of AP-1 reporter construct [2]	Structure (SMILES)	effect on regulation of IkB-α ([1]; 1 mM)	IC50 [3]	effect on IkB-α phosphorylation and degradation ([1]; 200 μM)	effect on IkB-α phosphorylation and degradation ([1]; 500 μM)
neither SFZ or the analogues interfered	O=C(O)c1cc(/N=N/c2ccc(S(=O)(=O)Nc3ccccn3)cc2)ccc1O [SFZ, Sulfasalazine, reference compound]	only very modest effects	1100 ± 250 µM	–	–
neither SFZ or the analogues interfered	COc1ccc(CNS(=O)(=O)c2ccc(/N=N/c3ccc(O)c(C(=O)O)c3)cc2)cc1 [Compound 3a, 2-hydroxy-5-[4-(4-methoxy-benzylsulfamoyl)-phenylazo]-benzoic acid]	–	499 ± 93 µM	partially effective	prevented IkB-α phosphorylation and degradation
neither SFZ or the analogues interfered	O=C(O)c1cc(/N=N/c2ccc(S(=O)(=O)NCc3ccc(C(F)(F)F)cc3)cc2)ccc1O [Compound 3f, 2-hydroxy-5-[4-(4-trifluoromethyl-benzylsulfamoyl)-phenylazo]-benzoic acid]	–	407 ± 11 µM	partially effective	prevented IkB-α phosphorylation and degradation
neither SFZ or the analogues interfered	Cc1cc(/N=N/c2ccc(S(=O)(=O)NCc3ccc(C(F)(F)F)cc3)cc2)cc(C(=O)O)c1O [Compound 3e, 2-hydroxy-3-methyl-5-[4-(4-trifluoromethyl-benzylsulfamoyl)-phenylazo]-benzoic acid]	–	195 ± 38 µM	partially effective	prevented IkB-α phosphorylation and degradation
